Measured values reported in patent US20110177156A1, “Sterol-Modified Amphiphilic Lipids” (priority 2007, published 2011).
Like-named read-outs stand apart in the source and are kept apart here. Blank lines part the entries; values can stand above or below the molecule they belong to.

What was measured:
[1] = Cholesterol exchange from donor liposomes to POPC acceptor liposomes at 37° C.; type: physicochemical; conditions: for exchange of cholesterol out of donor liposomes: PChcPC/DPPC/DPPG (50/40/10), DChcPC/DPPC/DPPG (25/65/10), POPC acceptor
Method: Unilamellar liposomes were prepared by extrusion method. […] Specifically, the three donor liposomes were formulated at the following molar ratios: 1) […] (50/40/10), 2) […] (25/65/10), 3) Chol/DPPC/DPPG (40/50/10). Neutral 1-palmitoyl-2-oleoyl-sn-glycero-3-phosphocholine (POPC) liposome was used as the acceptor. After extrusion, the diameter of the donor liposomes was around 100 nm, and 140 nm for the acceptor liposome. For the exchange experiments, 1 mL donor liposomes (10 mM) and 1 mL acceptor liposomes (100 mM, 10 fold) were warmed at 37° C. first, then mixed and incubated at 37° C. An aliquot (250 μL) of mixture was sampled at given time point and applied to a small (ca. 1 cm in length) anion exchange column (Q-Sepharose XL). The column was pretreated with 0.1 mL 10 mM POPC before the loading of the exchange sample to reduce the nonspecific binding of the neutral liposome. The column was eluted with 1 mL 10 mM NaCl, 10 mM HEPES pH 7.4 buffer. The eluate was lyophilized and analyzed by the cholesterol assay to quantify the amount of cholesterol exchanged.

[2] = SML:PC:AmB=2:2:1 (mole) liposomes, stored at 4° C.
[3] = tested on: C26 colon carcinoma cells; conditions: MTT, concentration as high as 1 mM
[4] = Differential scanning calorimetry of SMLs and SML/diacyl lipid mixtures; type: physicochemical
Source text: Specific SMLs were used as the model compounds to study the properties of the SML compounds. Phase behavior is one of the most important properties of lipid bilayers and is associated with various biological functions of cell membranes. Addition of free cholesterol to the phospholipid bilayer will change the phase behavior of the bilayer due to the mixing of free cholesterol with the glycerolipids and sphingolipids as well as the effect the isoprenol tail of free cholesterol exerts on the acyl chain packing in the bilayer. Using differential scanning calorimetry it was shown that the SMLs exert a similar effect as free cholesterol on acyl chain packing in bilayers composed of synthetic lipids. […] The equivalent sterol molar percentage in the mixture of m-SML and diacyl lipid is calculated according to the method of conventional lipid mixture with the following formula: Sterol %=[…])×100, wherein: For example, a pure m-SML has one sterol and one acyl chain, thus the equivalent free sterol percentage is 1/1.5×100=67. […]

[5] = tested on: C26 colon carcinoma; test: Survival of Balb/C mice tumored with C26 colon carcinoma after doxorubicin delivered in liposomes of various compositions; type: in vivo; conditions: Dose of Dox 10 mg/kg, s.c. C26 tumors
Method: The effect of these formulations on tumor progression and animal survival were compared against the effect non-encapsulated doxorubicin or Doxil™, a commercial liposome formulation of doxorubicin that is approved by the Food and Drug Administration in the Balb/C mice tumored with C26 colon carcinoma. (FIGS. 8 and 9, Table 3).
Drug loaded liposomes of defined size were prepared by methods well known in the art and described in, for example, (Liposomes: 2nd edition, Oxford University Press, 2003, V. Torchilin and V. Weissig., Ed.). Lipid films were prepared by drying 10 μmoles of lipid mixtures dissolved in chloroform under a reduced pressure in glass tubes using a rotary evaporator at room temperature, followed by an overnight exposure to a high vacuum. Liposomes were prepared by rehydrating the thin lipid film above the transition temperature of the lipid in a sterile 250 mM ammonium sulfate solution in screw-capped glass tubes, followed by sonication in a bath type sonicator for 10 minutes at 60° C. The liposome preparation was then extruded through 0.1 micron polycarbonate membranes. […] Mean vesicle diameters as measured by dynamic light scattering using the multimodal program ranged between 85-140 nm with a monodisperse particle size distribution (Malvern Instruments, UK). […]
All animal experiments were performed in compliance with the NIH guidelines for animal research under a protocol approved by the Committee on Animal Research at the University of California, San Francisco. […] Mice were weighed and tumor sizes were monitored daily during the experimental period. The tumor volume was estimated by measuring three orthogonal diameters (a, b, and c) with calipers; the volume was calculated as (a×b×c)×0.5 cm^3. […] In each experiment the mice were monitored for up to 60 days post-inoculation or until one of the following conditions for euthanasia was met: 1) their body weight dropped below 15% of their initial mass; 2) their tumor was greater than 2.0 cm across in any dimension; 3) they became lethargic or sick and unable to feed; or 4) they were found dead. […]

[6] = calcein liposomes, 37° C., compared with DMPC liposomes
[7] = Leakage of calcein from liposomes in 30% fetal bovine serum at 37° C.
[8] = type: physicochemical
Method: SML16m was designed to have a large surface area than conventional phospholipids by replacing of the hydrophobic lipid chain with an amphiphilic poly(ethylene glycol) chain. […] Unlike conventional amphiphilic molecules, SML16m solution doesn't foam when agitated, but forms a thin membrane along the glass wall above the solution surface. SML16m can effectively solubilize amphotericin B at molar ratios of 1:1 or higher to obtain a concentration of 5 mg/mL. SML16m can also be formulated with other lipids to achieve small liposomes.

Molecule: CCCCCCCCCCCCCCCC(=O)OCC(COP(=O)([O-])OCC[N+](C)(C)C)OC(=O)OC1CCC2(C)C(=CCC3C2CCC2(C)C(C(C)CCCC(C)C)CCC32)C1 (centres unmarked) [SML5b, 1-Palmitoyl-2-cholesterylcarbonoyl-sn-glycero-3-phosphocholine]
exchange of cholesterol out of donor liposomes [1]: very little or no detectable exchange of cholesterol
stability of formulation at 4° C. [2]: more than one year

Molecule: CCCCCCCCCCCCCCCCCCNC(=O)OC(COC(=O)OC1CCC2(C)C(=CCC3C2CCC2(C)C(C(C)CCCC(C)C)CCC32)C1)COP(=O)([O-])OCC[N+](C)(C)C (centres unmarked) [SML1a, 1-Cholesterylcarbonoyl-2-stearylcarbamoyl-sn-glycero-3-phosphocholine]
cytotoxicity [3]: certain cytotoxicity

half time for cholesterol exchange ([1]; free cholesterol in a conventional liposome (Chol/DPPC/DPPG 40/50/10)): ~2 h
Molecule: CC(C)CCC[C@@H](C)[C@H]1CC[C@H]2[C@@H]3CC=C4C[C@@H](O)CC[C@]4(C)[C@H]3CC[C@]12C [free cholesterol, cholesterol, reference compound]

equivalent cholesterol at which the phase transition is eliminated completely ([4]; SML mixed with diacyl lipid of the same chain length (C-16)): 30%
Molecule: 1-Cholesterylcarbonoyl-2-palmityl-rac-glycero-3-phosphocholine [SML2b]

Molecule: CCCCCCCCCCCCCCCCOCC(COP(=O)([O-])OCC[N+](C)(C)C)OC(=O)OC1CCC2(C)C(=CCC3C2CCC2(C)C(C(C)CCCC(C)C)CCC32)C1 (racemic) [SML4b, 1-Palmityl-2-cholesterylcarbonoyl-rac-glycero-3-phosphocholine]
stability of formulation at 4° C. [2]: more than one year

Molecule: COc1cccc2c1C(=O)c1c(O)c3c(c(O)c1C2=O)C[C@@](O)(C(=O)CO)C[C@@H]3O[C@H]1C[C@H](N)[C@H](O)[C@H](C)O1 [Free Dox, Doxorubicin]
# of Animals Surviving at Day 60 (n = 5) [5]: 0
Median Survival Day [5]: 26 days
# of Animals Surviving at Day 60 (n = 5) ([5]; listed as non-encapsulated doxorubicin): no animals survived to 60 days

Molecule: CCCCCCCCCCCCCCOCC(COP(=O)([O-])OCC[N+](C)(C)C)OC(=O)OC1CCC2(C)C(=CCC3C2CCC2(C)C(C(C)CCCC(C)C)CCC32)C1 (racemic) [SML4c, 1-Myristyl-2-cholesterylcarbonoyl-rac-glycero-3-phosphocholine]
stability of formulation at 4° C. [2]: more than one year

Molecule: CCCCCCCCCCCCCCNC(=O)O[C@H](COC(=O)O[C@H]1CC[C@@]2(C)C(=CC[C@H]3[C@@H]4CC[C@H]([C@H](C)CCCC(C)C)[C@@]4(C)CC[C@@H]32)C1)COP(=O)([O-])OCC[N+](C)(C)C [SML1c, 1-Cholesterylcarbonoyl-2-myristylcarbamoyl-sn-glycero-3-phosphocholine]
osmotic leakage profile / stability under osmotic gradients [6]: no difference in osmotic induced release
osmotic leakage profile / stability under osmotic gradients ([6]; listed as ChcMaPC): good stability
leakage profile of calcein from liposomes ([7]; 37° C., 4 weeks): remained intact
leakage of calcein in 28 days ([7]; 28 days): less than 1%

Molecule: CCCCCCCCCCCCCCCCNC(=O)OC(COC(=O)OC1CCC2(C)C(=CCC3C2CCC2(C)C(C(C)CCCC(C)C)CCC32)C1)COP(=O)([O-])OCC[N+](C)(C)C (centres unmarked) [SML1b, 1-Cholesterycarbonoyl-2-palmitylcarbamoyl-sn-glycero-3-phosphocholine]
cytotoxicity [3]: certain cytotoxicity

new transition in DSC trace ([4]; DChcPC/DPPC mixtures, equivalent free cholesterol 30 mole percent): around 20 °C
Molecule: CC(C)CCC[C@@H](C)[C@H]1CC[C@H]2[C@@H]3CC=C4C[C@@H](OC(=O)OC[C@H](COP(=O)([O-])OCC[N+](C)(C)C)OC(=O)O[C@H]5CC[C@@]6(C)C(=CC[C@H]7[C@@H]8CC[C@H]([C@H](C)CCCC(C)C)[C@@]8(C)CC[C@@H]76)C5)CC[C@]4(C)[C@H]3CC[C@]12C [SML6a, 1,2-Dicholesterylcarbonoyl-sn-glycero-3-phosphocholine]
exchange of cholesterol out of donor liposomes [1]: very little or no detectable exchange of cholesterol

Molecule: CCCCCCCCCCCCCCCCCC(=O)OCC(COP(=O)([O-])OCC[N+](C)(C)C)OC(=O)OC1CCC2(C)C(=CCC3C2CCC2(C)C(C(C)CCCC(C)C)CCC32)C1 (centres unmarked) [SML5a, 1-Stearoyl-2-cholesterylcarbonoyl-sn-glycero-3-phosphocholine]
stability of formulation at 4° C. [2]: more than one year

concentration of amphotericin B solubilized [8]: 5 mg/mL
solubility in water [8]: dissolves in water easily
Molecule: COCCOCCOCCOCCOCCOCCOCCOCCC(=O)O[C@H](COC(=O)CCC(=O)O[C@H]1CC[C@@]2(C)C(=CC[C@H]3[C@@H]4CC[C@H]([C@H](C)CCCC(C)C)[C@@]4(C)CC[C@@H]32)C1)COP(=O)([O-])OCC[N+](C)(C)C [SML16m, 1-cholesterylhemisuccinoyl-2-(2,5,8,11,14,17,20,23-octaoxahexacosan-26-oyl)-sn-glycero-3-phosphocholine]
